Patent US8829014B2, “Thiazole and thiophene analogues, and their use in treating autoimmune diseases and cancers” (Board of Supervisors of Louisiana State University and …, priority 2006, dated 2014)
Marks after values point to notes of the source that are not given here.

Columns and labels:
AP-1 [1] = test: PMA-induced AP-1 luciferase expression in HEK cells; format: cell-based; details: PMA-induced; compound added 1 h before inducer, luciferase 24 h later; normalized to DMSO vehicle
[2] = system: Human umbilical vein endothelial cells (HUVEC); test: LDH release cytotoxicity in HUVEC; format: cell-based; details: HUVEC, 10 μM, 48 h, relative to vehicle
Description: (§1) Additional compounds have also been tested for their ability to inhibit both TNF-α-induced NF-κB—expression and PMA-induced AP-1 expression. In both tests, the compound was added for 1 h, then the appropriate inducer was added, and luciferase activity was monitored 24 h later. Values were then normalized to the vehicle control, DMSO. Following the initial luciferase screens, studies were conducted to assess the cytotoxicity of the compounds in normal cells such as VSMC, HUVEC, or HPT cells. Human umbilical vein endothelial cells (HUVEC) represent the normal endothelium, vascular smooth muscle cells (VSMC) were represented by cells from the adult rat aorta, and human proximal tubule (HPT) cells represent the normal proximal tubule in vivo. These cells were grown to near confluency in multi-well plates, and were then treated for 48 h with either vehicle (0.1% DMSO) or 10 μM of each drug candidate. Following treatment, the media from the VSMC and HUVEC incubations were removed, and the amount of lactate dehydrogenase (LDH) released into the medium was determined with a commercial kit. LDH is normally confined to the cytosol, and its release represents “leakiness” of the plasma membrane. LDH activity was expressed as % increase over vehicle-treated cells. In another assay of viability, the treated VSMC and HUVEC were removed by trypsinization and treated with trypan blue, a dye that is taken up only by dead cells. The number of both live and dead cells was counted using an automated cell viability analyzer. The % decrease in numbers of viable cells was determined. Toxicity in the treated HPT cells was determined by the ethidium homodimer (EthHD) uptake assay. EthHD is a fluorescent dye that is excluded from live cells, but is taken up by cells that have lost permeability barriers. Inside the cell, EthHD produces a strong fluorescent signal, which is proportional to the number of dead cells. Results were expressed as a % increase in cell death over vehicle-treated cells. The lead compounds were also tested in two pairs of cell lines from either the skin or prostate, one tumorigenic and one non-tumorigenic, to test for any differences in toxicity or heightened sensitivity in the tumorigenic lines. The cells were treated for 48 h with vehicle (0.1% DMSO) or 10 μM of each drug candidate. Following treatment, the viability of the cells was determined by the MTT assay. In this assay, the MTT dye is converted only in viable cells by intracellular enzymes to a colorimetric product that is quantitated by a microplate reader.
(§2) For the results in Table 13, cells were grown to near confluency in multi-well plates, then treated for 48 h with either vehicle (0.1% DMSO) or 10 μM of each drug candidate. Following treatment, the media from the VSMC and HUVEC incubations were removed, and the amount of lactate dehydrogenase (LDH) released into the medium was determined with a commercial kit and expressed as a % increase over vehicle-treated cells. HPT toxicity was determined by the ethidium homodimer (EthHD) uptake assay. Inside the cell, EthHD produces a strong fluorescent signal, which is proportional to the amount of cell death, expressed as a % increase in cell death over vehicle-treated cells. The lead compounds were also tested in two pairs of cell lines from the skin or prostate, one tumorigenic and one non-tumorigenic, to test for differing toxicity or heightened sensitivity in the tumorigenic lines. The cells were treated for 48 h with vehicle (0.1% DMSO) or 10 μM of each drug candidate, and the viability of the cells was determined by the MTT assay, expressed as a % decrease in viability compared to vehicle-treated cells. The in vivo inflammation model measured the % inhibition of rat paw edema induced by carageenan injection.

[3] = system: vascular smooth muscle cells (VSMC); test: LDH release cytotoxicity in VSMC; format: cell-based; details: VSMC, 10 μM, 48 h, relative to vehicle
Description: as §1, §2

NF-κB [4] = test: TNF-α-induced NF-κB-dependent luciferase expression in HEK cells; format: cell-based; parameters: NF-κB % inhibition: concentration or dose not given beside the values; details: TNF-α-induced; compound added 1 h before inducer, luciferase 24 h later; normalized to DMSO vehicle
[5] = system: human proximal tubule (HPT) cells; test: Ethidium homodimer (EthHD) uptake toxicity assay in HPT cells; format: cell-based; details: 10 μM, 48 h, relative to vehicle
Description: as §1, §2

[6] = system: vascular smooth muscle cells (VSMC); test: Trypan blue viability count in VSMC; format: cell-based; details: VSMC, 10 μM, 48 h, relative to vehicle
Description: as §1

[7] = system: cell lines from the skin, one tumorigenic and one non-tumorigenic; test: MTT viability in skin cell line pair, tumorigenic and non-tumorigenic; format: cell-based
Description: as §1, §2

[8] = system: Human umbilical vein endothelial cells (HUVEC); test: Trypan blue viability count in HUVEC; format: cell-based; details: HUVEC, 10 μM, 48 h, relative to vehicle
Description: as §1

AP-1 [9] = test: AP-1 inhibitor screen: basal AP-1-dependent luciferase expression in HEK/AP-1 cell line; format: cell-based; details: AP1; 1 uM; determined as described in Example 398
In short: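 HEK293 cells stably carrying a luciferase reporter driven by three AP-1 elements were plated 24 hr, then given compound at 1.0 μM in 0.3% DMSO for 48 hr, in triplicate. Basal expression without stimulus was read as luminescence (Brite-Glo), normalized to DMSO; dose-response runs repeated two to four times.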

NF-κB [10] = test: NF-κB inhibitor screen: basal NF-κB-dependent luciferase expression in HEK/NF-κB cell line; format: cell-based; details: 1 uM; determined as described in Example 398; read-out: NFkB inhibition @ 1 uM
In short: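 HEK293 cells stably carrying a luciferase reporter under six NF-κB elements were treated with compound, unstimulated, 24 h after plating. Compounds were first tested at 1.0 μM (0.3% DMSO), later at six doses from 10 to 3300 nM, in triplicate. Brite-Glo luciferase signal was normalized to DMSO, or to the lowest dose for dose-response runs.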

melting point [°C]	SMILES	AP-1 % inhibition (AP-1 [1])	LDH release % Increase HUVEC [2]	LDH release % Increase VSMC [3]	NF-κB % inhibition (NF-κB [4])	Cell Death (EthHD) % Increase HPT [5]	Viable Cells % Decrease VSMC [6]	Viability (MTT) % Decrease HaCaT [7]	Viability (MTT) % Decrease SRB12-p9 [7]	Viable Cells % Decrease HUVEC [8]	inhibition at 1 µM (AP-1 [9]) [%]	inhibition at 1 µM (NF-κB [10]) [%]
–	O=c1c2ccccc2nc(-c2cc(-c3ccncc3)c(N3CCOCC3)s2)n1-c1ccc(Cl)cc1 [PMCR236]	32%	39# %	91# %	68** %	172# %	94# %	6%	19%	60# %	–	–
–	Cc1nc(Nc2ccc(Cl)cc2)sc1-c1nc2ccccc2c(=O)n1-c1ccccc1Cl [PMCR120]	27%	6%	11%	60** %	17%	13%	−4%	85# %	16%	–	–
–	CNc1nc(C)c(-c2nc3ccccc3c(=O)n2-c2ccccc2C)s1 [PMCR19]	67** %	14%	4%	18%	63# %	29# %	6%	21%	20%	–	–
–	CCOC(=O)Nc1nc(-c2ccccc2)c(-c2nc3ccccc3c(=O)n2-c2ccccc2C)s1 [PMCR25]	52** %	59# %	78# %	23%	34# %	56# %	−5%	28# %	40# %	–	–
–	O=c1c2ccccc2nc(-c2cc(-c3ccncc3)c(N3CCOCC3)s2)n1-c1ccccc1Cl [PMCR224]	45%	28# %	18%	80** %	266# %	63# %	−4%	13%	43# %	–	–
–	COC(=O)Nc1nc(-c2ccccc2)c(-c2nc3ccccc3c(=O)n2-c2ccccc2Cl)s1 [PMCR122]	66** %	37# %	20%	55** %	210# %	45# %	6%	11%	32# %	–	–
–	COc1ccccc1-n1c(-c2cc(-c3ccncc3)c(N3CCOCC3)s2)nc2ccccc2c1=O [PMCR206]	33%	−1%	0%	31%	147# %	0%	11%	30# %	12%	–	–
–	COc1ccc(-n2c(-c3cc(-c4ccc(S(C)(=O)=O)cc4)c(N4CCOCC4)s3)nc3ccccc3c2=O)cc1 [PMCR216]	10%	0%	−10%	60** %	152# %	6%	−21%	16%	−1%	–	–
–	CNc1nc(-c2ccccc2)c(-c2nc3ccccc3c(=O)n2-c2ccccc2OC)s1 [PMCR75]	90** %	15%	31# %	61** %	4%	70# %	46# %	61# %	41# %	–	–
–	Cc1cccc(-n2c(-c3sc(NC(=O)c4ccccc4)nc3-c3ccccc3)nc3ccccc3c2=O)c1 [PMCR45]	63** %	123# %	116# %	42%	49# %	67# %	19%	20%	41# %	–	–
–	COc1ccccc1-n1c(-c2cc(-c3ccc(S(C)(=O)=O)cc3)c(N3CCOCC3)s2)nc2ccccc2c1=O [PMCR204]	33%	214# %	164# %	55** %	207# %	70# %	−8%	12%	65# %	–	–
> 275	Cc1ccc(C(=O)Nc2nc(-c3ccccc3)c(-c3nc4ccccc4c(=O)n3-c3ccccc3C)s2)cc1 [Example 176, 4-Methyl-N-[5-(4-oxo-3-o-tolyl-3,4-dihydroquinazolin-2-yl)-4-phenyl-thiazol-2-yl]-benzamide]	–	–	–	–	–	–	–	–	–	29	-8
271 to 273	CC(=O)c1ccc(-n2c(-c3sc(Nc4ccccc4)nc3C)nc3ccccc3c2=O)cc1 [Example 262, 2-(4-Methyl-2-phenylamino-thiazol-5-yl)-3-(4-acetyl-phenyl)-3H-quinazolin-4-one]	–	–	–	–	–	–	–	–	–	7	15
195 to 196	COc1cccc(-n2c(-c3sc(NC(=O)c4ccccc4)nc3-c3ccccc3)nc3ccccc3c2=O)c1 [Example 214, N-[5-(4-Oxo-3-(3-methoxyphenyl)-3,4-dihydro-quinazolin-2-yl)-4-phenyl-thiazole-2-yl]benzamide]	–	–	–	–	–	–	–	–	–	30	34
225 to 228	Cc1ccc(-n2c(-c3sc(Nc4ccccc4)nc3-c3ccccc3)nc3ccccc3c2=O)cc1 [Example 196, 3-p-Tolyl-2-(4-phenyl-2-phenylamino-thiazol-5-yl)-3H-quinazolin-4-one]	–	–	–	–	–	–	–	–	–	10	38
> 275	COC(=O)Nc1nc(-c2ccccc2)c(-c2nc3ccccc3c(=O)n2-c2ccccc2C)s1 [Example 172, [5-(4-Oxo-3-o-tolyl-3,4-dihydro-quinazolin-2-yl)-4-phenyl-thiazol-2-yl]-carbamic acid methyl ester]	–	–	–	–	–	–	–	–	–	25	0
